Data: US10316017B2, “COT modulators and methods of use thereof” (Gilead Sciences, Inc., priority 2015, dated 2019)
Like-named read-outs stand apart in the source and are kept apart here.

Tests used:
[1] = system: TNFα production in LPS-stimulated human monocytes; test: Cot Monocyte TNFα Cell Based Assay; settings: Homo sapiens, Monocyte, read-out: EC50 TNF
Outline: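 TNFα release quantified by two-antibody TR-FRET, normalised to unstimulated (0%) and LPS-stimulated (100%) wells. Cells got a 1 h compound exposure at 37° C in 0.5% DMSO before 4 h challenge with 50 pg/ml LPS, at 5,000 cells/well.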

[2] = biological target: T1, human Cot catalytic domain (30-397 amino acids) (Homo sapiens, UniProt P41279); test: High Throughput Cot Biochemical Assay (KinEASE TR-FRET); settings: Cot biochemical HTRF (KinEASE TR-FRET) assay; read-out: IC50 HTRF
T1 construct: Purified recombinant human Cot catalytic domain (30-397 amino acids) was purchased from Cama Biosciences; purchased Cama Biosciences (so in the source)
Outline: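 TR-FRET (KinEASE) read-out: Eu-labelled phospho-specific antibody binds XL665-tagged STK3 peptide (1 μM) phosphorylated by 5 nM human Cot kinase domain (residues 30-397). Reaction at 400 μM ATP, pH 7.0 MOPS buffer with 10 mM MgOAc, 1 mM DTT and 0.1% DMSO.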

[3] = TNFα in LPS-stimulated human monocytes

T1 sequence (P41279 30-397): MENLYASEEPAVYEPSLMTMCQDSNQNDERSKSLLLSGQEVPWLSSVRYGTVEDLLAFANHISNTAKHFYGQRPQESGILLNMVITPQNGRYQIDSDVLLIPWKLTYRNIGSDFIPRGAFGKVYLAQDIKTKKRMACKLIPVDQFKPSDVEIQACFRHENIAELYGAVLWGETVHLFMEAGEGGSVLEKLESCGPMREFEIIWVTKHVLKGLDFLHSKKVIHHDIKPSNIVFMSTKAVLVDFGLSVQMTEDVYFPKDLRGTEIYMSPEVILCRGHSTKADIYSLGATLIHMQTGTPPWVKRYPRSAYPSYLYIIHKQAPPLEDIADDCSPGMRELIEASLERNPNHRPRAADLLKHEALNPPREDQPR

EC50 [1, 3] [nM]	IC50 [2] [nM]	Compound	EC50 [1] [nM]
415	6	N#Cc1cccc([C@H](Nc2cc(Cl)c3ncc(C#N)c(Nc4cnc(F)c(F)c4)c3c2)c2c[nH]nn2)c1 [Example 424, (S)-8-chloro-6-(((3-cyanophenyl)(1H-1,2,3-triazol-4-yl)methyl)amino)-4-((5,6-difluoropyridin-3-yl)amino)quinoline-3-carbonitrile]	
438	10	N#Cc1cnc2c(Cl)cc(N[C@@H](c3ccc(F)cc3)c3c[nH]nn3)cc2c1Nc1cnc(F)c(Cl)c1 [Example 425, (S)-8-chloro-4-((5-chloro-6-fluoropyridin-3-yl)amino)-6-(((4-fluorophenyl)(1H-1,2,3-triazol-4-yl)methyl)amino)quinoline-3-carbonitrile]	
> 10000	3150	CC[C@@H](Nc1c(C#N)cnc2c(Cl)cc(N[C@H](c3cnn(C(F)F)n3)c3cccc(F)c3F)cc12)c1ccccc1 [Example 426, 8-chloro-6-(((S)-(2-(difluoromethyl)-2H-1,2,3-triazol-4-yl)(2,3-difluorophenyl)methyl)amino)-4-(((R)-1-phenylpropyl)amino) quinoline-3-carbonitrile]	
8880	316	CC[C@@H](Nc1c(C#N)cnc2c(Cl)cc(N[C@@H](c3cccc(F)c3F)c3cnnn3C(F)F)cc12)c1ccccc1 [Example 427, 8-chloro-6-(((S)-(1-(difluoromethyl)-1H-1,2,3-triazol-5-yl)(2,3-difluorophenyl)methyl)amino)-4-(((R)-1-phenylpropyl)amino) quinoline-3-carbonitrile]	
1830	87	CC[C@@H](Nc1c(C#N)cnc2c(Cl)cc(N[C@H](c3cn(C(F)F)nn3)c3cccc(F)c3F)cc12)c1ccccc1 [Example 428, 8-chloro-6-(((S)-(1-(difluoromethyl)-1H-1,2,3-triazol-4-yl)(2,3-difluorophenyl)methyl)amino)-4-(((R)-1-phenylpropyl)amino) quinoline-3-carbonitrile]	
257	9	CC[C@@H](Nc1c(C#N)cnc2c(Cl)cc(N[C@H](c3cn(C4CC4)nn3)c3ccccc3F)cc12)c1ccccc1 [Example 429, 8-chloro-6-(((S)-(1-cyclopropyl-1H-1,2,3-triazol-4-yl)(2-fluorophenyl)methyl)amino)-4-(((R)-1-phenylpropyl)amino)quinoline-3-carbonitrile]	
679	7	N#Cc1cnc2c(Cl)cc(N[C@H](c3cn(C4CC4)nn3)c3ccccc3F)cc2c1Nc1cnc(F)c(F)c1 [Example 430, (S)-8-chloro-6-(((1-cyclopropyl-1H-1,2,3-triazol-4-yl)(2-fluorophenyl)methyl)amino)-4-((5,6-difluoropyridin-3-yl)amino)quinoline-3-carbonitrile]	
3930	624	N#Cc1cnc2c(Cl)cc(N[C@@H](c3ccc(F)cc3)c3c[nH]nn3)cc2c1N[C@@H](CCO)c1ccccc1 [Example 432, 8-chloro-6-(((S)-(4-fluorophenyl)(1H-1,2,3-triazol-4-yl)methyl)amino)-4-(((S)-3-hydroxy-1-phenylpropyl)amino)quinoline-3-carbonitrile]	
1380	31	N#Cc1cnc2c(Cl)cc(N[C@@H](c3ccc(F)cc3)c3c[nH]nn3)cc2c1N[C@H](CO)c1ccccc1 [Example 433, 8-chloro-6-(((S)-(4-fluorophenyl)(1H-1,2,3-triazol-4-yl)methyl)amino)-4-(((S)-2-hydroxy-1-phenylethyl)amino)quinoline-3-carbonitrile]	

Compound	EC50 [1, 3] [nM]	IC50 [2] [nM]	EC50 [1] [nM]
C[Si](C)(C)Cn1cc([C@@H](Nc2cc(Cl)c3ncc(C#N)c(Nc4cnc(F)c(F)c4)c3c2)c2ccccc2F)nn1 [Example 431, (S)-8-chloro-4-((5,6-difluoropyridin-3-yl)amino)-6-(((2-fluorophenyl)(1-((trimethylsilyl)methyl)-1H-1,2,3-triazol-4-yl)methyl)amino)quinoline-3-carbonitrile]		96	3280
